# Reference: patent US6160166A, “Phosphonated agents and their antiangiogenic and antitumorigenic use” (priority 1999, dated 2000)
# “Also recorded” adds a separate entry of the source.
# Key:
# [1] = test system: chick chorioallantoic membrane (CAM); experiment: Chick egg chorioallantoic membrane (CAM) assay, 6-day, growing vessels: inhibition of angiogenesis; format: in vivo
# Excerpt: The purpose of this experiment was to test the ability of the phosphonic acid agents described above to inhibit angiogenesis. […]
# (§1) Comparison of the inhibition of angiogenesis by 70 nmol of
# (§2) suramin or a equimolar amount of a phosphonic acid agents in the
# (§3) 6-day and 11-day chick egg chorioallantoic (CAM) assay.
# [2] = test system: chick chorioallantoic membrane (CAM); experiment: Chick egg chorioallantoic membrane (CAM) assay, 11-day, established vessels; format: in vivo
# Method: According to Ausprunk et al. (1974), capillary angiogenesis in the CAM is completed by day 11. Measurements of intercapillary distances are also consistent with the cessation of capillary growth after day 10. […] The implants were prepared as previously described by Gagliardi et al. (1992), implanted on day 11 and read on day 13.
# as §1, §2, §3
# [3] = test system: human dermal Microvascular endothelial cells; experiment: Inhibition of bFGF-stimulated growth of human microvascular endothelial cells; format: cell-based; settings: Homo sapiens, Endothelial cell; bFGF-stimulated; estimated from dose response curve
# Method: Inhibition of cell growth was evaluated by measuring total protein and total DNA and the IC50 was estimated for each dose response curve.
# Toxicity in vivo in mice = experiment: Toxicity in vivo in mice; set-up: species or system mouse
# Method: Mice were injected intraperitoneally with 0-150 μM/kg body weight of the compounds to be tested, every other day for a total of five injections. The animals were carefully observed daily and weighed every third day for 28 days after the last injection. After the 28-day observation period, the animals were euthanized, blood was collected through cardiac puncture and the following tissues were subjected to histological investigation: heart, lungs, liver, spleen, adrenal gland, kidney, sciatic nerve, soleus muscle and brain.
# It is clear from studies so far that compounds with equipotent or greater antitumor activity but with substantially lower toxicity are of considerable potential therapeutic value as an antitumorigenic or antiangiogenic agent. […] The animals were carefully observed daily and weighed every third day for 28 days after the last injection. After the 28-day observation period, the animals were euthanized, blood was collected through cardiac puncture and the following tissues were kept for histological investigation: heart, lungs, liver, spleen, adrenal gland, kidney, sciatic nerve, soleus muscle and brain.
# HMEC-1 = HMEC-1 cell growth, total protein and total DNA; format: cell-based, human
# Method: Logarithmically growing HMEC-1 or HMVEC-d cells are seeded at 2×10^4 cells/well in six well plates (Falcon) containing 2 ml of MCDB-131 medium supplemented with 5% fetal bovine serum (FBS) (Hyclone). […] After removal of medium, the cell layer is washed twice with 1 ml of cold Hanks balanced salt solution and the cells are dislodged by trypsinization. The cells are collected in microcentrifuge tubes and washed twice with 1 ml of cold phosphate-buffered saline, and then 1 ml of cold 10% trichloroacetic acid are added. Acid precipitable radioactivity are collected on a glass fiber filter (Whatman Grade GF/C) and the radioactivity is determined in a liquid scintillation spectrometer (Packard).
# p34cdc2 kinase [4] = experiment: p34cdc2 kinase activity and tyrosine phosphorylation; format: biochemical, human
# Method: The effects of selected phosphonic acid agents on the p34cdc2-related kinase activity are carried out essentially as described by Bojanowski et al. (1994).
# Cytoplasmic and nuclear extractions: 100 million cells (HMVEC-1 or HMEC-d) are washed twice with cold PBS and incubated in hypotonic phosphate buffer for 45 min on ice. The cells are then disrupted with a Dounce homogenizer and nuclei separated from the cytoplasmic fraction by centrifugation and extensive washing with hypotonic buffer. The nuclei are incubated for 30 min in the presence of 350 mM NaCl and the nonsoluble nuclear material removed by ultracentrifugation (20 min at 40000 rpm in TL 100 Beckman ultracentrifuge). The protein concentration are adjusted to 1.5 mg/ml, 20% of glycerol are added and the extracts stored at -20° C. […]
# Reactions are stopped by placing the samples on ice and spotting 5 μl of the reaction mixture onto P81 phosphocellulose filters (Whatman). Filters are washed three times in 50 mM phosphoric acid, dried and the radioactivity retained on the filters are determined by liquid scintillation (Beckman).
# Western blot: the precipitates are electrophoresed in 12.5% 12×12 cm ready-made polyacrylamide gels (Daichi Co.) and the proteins transferred to Immobilon PVDF membranes (Millipore). […] A Pharmacia LKB image master DTS chromoscan are used for band quantification (Bojanowski et al., 1994).
# [5] = test system: human microvascular endothelial cells; experiment: Detachment / toxicity of cultured human microvascular endothelial cells; format: cell-based
# [6] = test system: human dermal microvascular and porcine pulmonary artery endothelial cells; experiment: bFGF-stimulated and non-stimulated endothelial cell growth (total protein, total DNA); format: cell-based; settings: suramin 210 μM
# Excerpt: Suramin is a highly charged molecule with six sulfonate groups that are ionized at physiologic pH.
# [7] = test system: human microvascular endothelial cells; experiment: Sensitivity of microvascular versus large vessel endothelium to inhibition; format: cell-based
# PKC type I-III = settings: Mahoney et al., 1990; read-out: ID50, PKC type I-III activity; cited from earlier work
# [8] = target: cyclic AMP-dependent protein kinase; settings: Mahoney et al., 1990; cited from earlier work
# p34cdc2 kinase [9] = settings: literature; extracts from human small cell lung cancer cells; cited from earlier work
# [10] = test system: human cerebral meningioma cells; settings: Schrell et al., 1995; cited from earlier work
# [11] = test system: MCF-7 human breast cancer cells; settings: 48 hr (Foekens et al., 1993); cited from earlier work
# [12] = test system: binding of growth factors to their receptors; settings: intact cells; cited from earlier work
# urokinase receptor = settings: cited from earlier work
# DNA synthesis = settings: Jindal et al. (1990); cited from earlier work
# [13] = test system: tyrosine specific phosphorylation of cellular proteins; settings: Ghosh and Miller, 1993; cited from earlier work
compound,measurement,setting,value
Cc1ccc(C(=O)Nc2ccc(S(=O)(=O)O)c3cc(S(=O)(=O)O)cc(S(=O)(=O)O)c23)cc1NC(=O)c1cccc(NC(=O)Nc2cccc(C(=O)Nc3cc(C(=O)Nc4ccc(S(=O)(=O)O)c5cc(S(=O)(=O)O)cc(S(=O)(=O)O)c45)ccc3C)c2)c1 [suramin],6-day CAM % Inhibition of angiogenesis,"[1]; 70 nmol or equimolar amount, 6-day CAM",64%
same,"inhibition of angiogenesis in the 6-day CAM, in words","[1]; 6-day CAM, rapidly growing vessels",showed antiangiogenic activity; also recorded: clearly affected both the growing and established vascular cells
same,"ID50, dose that produces 50% inhibition of angiogenesis",[1]; CAM assay,75 nmol
same,11-day CAM % Inhibition,[2]; 70 nmol or equimolar amount,50%
same,"inhibitory activity in the 11-day CAM, in words",[2]; established vessels,showed antiangiogenic activity; also recorded: clearly affected both the growing and established vascular cells
same,IC50,[3],437 µM
same,reduction in body weight,"Toxicity in vivo in mice; 150, 75 and 35 μM/kg body weight, injection period",10-15%
same,histological findings,"Toxicity in vivo in mice; after 28-day observation, suramin or equimolar doses",dose-related frequency of lipoid degeneration of the zona reticularis of the adrenal gland and vacuolar changes in the proximal convoluted tubules of the renal tubular epithelium
same,mortality,"Toxicity in vivo in mice; i.p., every other day, five injections, suramin 150 μM/kg, agents up to 150 μM/kg",died before completion of the five injections
same,"body weight, in words","Toxicity in vivo in mice; i.p., five injections, 28 days observation",body weight stabilized but did not return to normal
same,effect on cell growth,HMEC-1; 50-100 μg/ml,stimulatory effect on cell growth
same,effect on total protein and total DNA,"HMEC-1; suramin higher than 250 μg/ml, agents lower concentrations",significant dose-related reduction in total protein and total DNA
same,effect on HMEC-1 cell growth,HMEC-1; up to 100 μg/ml,did not have any significant inhibitory effect
same,inhibition of p34cdc2 kinase,p34cdc2 kinase [4],inhibits p34cdc2 kinase activity in a dose-related manner
same,p34cdc2 kinase tyrosine phosphorylation / mobility,"p34cdc2 kinase [4]; Western blot, anti-phosphotyrosine immunoblot",a difference in p34cdc2 kinase tyrosine phosphorylation
same,floating cells,[5]; 24 hr of treatment,a large number of floating cells
same,time for detection of suramin toxicity on endothelial cells,[5]; concentrations higher than 200 μM,> 12 h
same,effect on bFGF stimulation of endothelial cell growth,[6],inhibited the stimulatory effect of bFGF; also recorded: inhibited the growth factor stimulatory effect
same,sensitivity of microvascular versus large vessel endothelium,[7],much more sensitive to inhibition
same,IC50,PKC type I-III,50 µM
same,IC50,[8],656 µM
same,effect on purified cdc2 kinase / tyrosine phosphorylation,p34cdc2 kinase [9],direct inhibitory effect on purified cdc2 kinase and also modulates the tyrosine phosphorylation of cdc2 kinase
same,effect on proliferation and cell cycle,[10],inhibited proliferation of human cerebral meningioma cells and increased the percentage of cells in the S and G2/M phase of the cell cycle; also recorded: inhibited meningioma cell proliferation in five different tumor lines by arresting cells in G2-M and S phases of the cell cycle
same,effect on cell cycle,[11],accumulation of MCF-7 human breast cancer cells in the G2-M phase of the cell cycle
same,effect on binding of growth factors to their receptors,[12],able to disrupt the binding of growth factors to their receptors in intact cells
same,inhibition of urokinase receptor mediated plasminogen activation,urokinase receptor,specific inhibition of the activity of the urokinase receptor mediated cell surface plasminogen activation system
same,effect on DNA synthesis,DNA synthesis,inhibitory action of suramin on DNA synthesis
same,effect on tyrosine specific phosphorylation,[13],increase the global tyrosine specific phosphorylation of cellular proteins in vivo
